From paper PMC11259170, “Small-molecule probe for IBD risk variant GPR65 I231L alters cytokine signaling networks through positive allosteric modulation” (Science Advances, 2024)
pEC50: −log10 of the molar value. Like-named read-outs stand apart in the source and are kept apart here.

Key:
hGPR65 = target: T1, hGPR65 (Homo sapiens, UniProt Q8IYL9); assay: cAMP detection in HeLa expression cell line, hGPR65; assay type: cell-based; details: for Emax: HeLa, relative to 100uM forskolin (100%) and DMSO (0%), read-out: hGPR Max Activity %; for EC50: hGPR EC50 (uM); for activity for hGPR65 among prioritized molecules: 1.56 μM
T1 construct: expressed in transfected cells; host or cells: HeLa (ATCC CCL-2), lentiviral transduction, pLX317
Outline: (§1)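 Compound was dispensed from a 10 mM DMSO stock, and puromycin-selected HeLa lines carrying lentiviral V5-tagged receptor were added at 1500 cells/well in pH 7.2 stimulation buffer. After 30 min stimulation at room temperature, cells were lysed and detection ran 1 h in the dark before cAMP TR-FRET reading.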

[1] = Comment on solubility in SAR table; assay type: physicochemical
Source text: Supplement sciadv.adn2339_data_s1_to_s4.zip/sciadv.adn2339_data_s2.xlsx, sheet "SAR cAMP Assay"

mGPR65 = target: T2, mGPR65 (Mus musculus, UniProt Q61038); assay: cAMP detection in HeLa expression cell line, mGPR65; assay type: cell-based; details: for Emax: HeLa, relative to 100uM forskolin (100%) and DMSO (0%), read-out: mGPR Max Activity %; for EC50: mGPR EC50 (uM); for cAMP activity, mGPR65 / activity for mGPR65 among prioritized molecules: pH 7.2; for activity for mGPR65 among prioritized molecules: 1.56 μM
T2 construct: expressed in transfected cells; host or cells: HeLa (ATCC CCL-2), lentiviral transduction, pLX317
Outline: as §1

human GPR4 (hGPR4) = target: T3, human GPR4 (hGPR4) (Homo sapiens, UniProt P46093); assay: cAMP detection in HeLa expression cell line, hGPR4; assay type: cell-based; details: for EC50: GPR4 EC50 (uM)
T3 construct: expressed in transfected cells; host or cells: HeLa (ATCC CCL-2), lentiviral transduction, pLX317
Method: (§2) HeLa stable expression cell lines were produced by lentiviral transduction. Briefly, lentiviral plasmids for each GPCR with a C-terminal V5 Tag ([…]) were made in a pLX317 backbone using competent Escherichia coli (New England Biolabs, C3050H). Lenti-X 293 T (Takara, 632810) cells were transfected with the lentiviral plasmids to produce virus. Low-passage HeLa cells (American Type Culture Collection, CCL-2) were then transduced with lentivirus. After 48 hours, HeLa cells were cultured under selection with puromycin (3 μg/ml) and allowed to recover and expand before storing stocks in liquid nitrogen.
(§3) cAMP was measured in cells using the Lance Ultra cAMP Kit. HeLa cells were cultured under puromycin (3 μg/ml) selection. One day before the experiment, cells were seeded in T75 flasks and allowed to adhere overnight. On the day of the experiment, cells were washed twice with Dulbecco’s PBS and lifted using prewarmed 1× versene solution (Gibco, 15040066). Cells were counted in HBSS (Gibco, 14025092) and then resuspended in stimulation buffer prepared according to the manufacturer’s instructions and adjusted to pH 7.2 using 1 M sodium hydroxide. Cells were added to the plate at a density of 1500 cells per well in white opaque 384-well assay ready microplates containing 100 nl of 10 mM compound in DMSO. Cells were stimulated for 30 min at RT, then lysed and incubated with detection reagents for 1 hour in the dark at RT. Plates were read on BMG Labtech PHERAstar FSX (excitation, 337 nm; emission, 620 and 665 nm). Data analysis was performed using GraphPad Prism.

hGPR65-SmBiT = target: T4, hGPR65-SmBiT (Homo sapiens, UniProt Q8IYL9); assay: Nano-BiT target engagement, LgBiT-mGs recruitment to hGPR65-SmBiT in Expi293F cells; assay type: cell-based
T4 construct: expressed in transfected cells; host or cells: Expi293F (Gibco), transient transfection
Method: (§4) Target engagement was measured in Expi293F (Gibco, 100044202) cells using the Nano-Glo Live Cell Assay System (Promega, N2011). Nano-BiT plasmids were cloned from GPR65-, GPR4-, and GPR68-Tango plasmids. GPR65-Tango (Addgene plasmid # 66370; http://n2t.net/addgene:66370; RRID:Addgene_66370), GPR4-Tango (Addgene plasmid # 66358; http://n2t.net/addgene:66358; RRID:Addgene_66358), and GPR68-Tango (Addgene plasmid # 66371; http://n2t.net/addgene:66371; RRID:Addgene_66371) were gifts from Bryan Roth. Expi293F cells were transfected 1 day before kinetics with 500 ng of each plasmid using ExpiFectamine 293 Transfection Kit (Gibco, A14525). After 24 hours, cells were collected, washed, and resuspended in room temperature 0.1% PBS-BSA, adjusted to pH 7.4 using 1 M NaOH. Cells were transferred to white opaque 96-well microplates (100 μl per well, PerkinElmer, 6005290), followed by addition of the Nano-Glo Live Cell Reagent (25 μl per well). Baseline luminescence was measured for 10 cycles (1 cycle = 90 s) before adding compounds. All luminescence measurements were made on BMG Labtech PHERAstar FSX. Data analysis was performed using GraphPad Prism.

mGPR65-SmBiT = target: T5, mGPR65-SmBiT (Mus musculus, UniProt Q61038); assay: Nano-BiT target engagement, LgBiT-mGs recruitment to mGPR65-SmBiT; assay type: cell-based; details: 10 μM
T5 construct: expressed in transfected cells; host or cells: Expi293F (Gibco), transient transfection
Method: as §4

hGPR4-SmBiT = target: T6, hGPR4-SmBiT (Homo sapiens, UniProt P46093); assay: Nano-BiT target engagement, LgBiT-mGs recruitment to hGPR4-SmBiT; assay type: cell-based; details: 10 μM
T6 construct: expressed in transfected cells; host or cells: Expi293F (Gibco), transient transfection
Method: as §4

[2] = Solubility in phosphate buffer; assay type: physicochemical; details: read-out: Solubility
Lipophilicity (logD) = assay type: physicochemical; details: pH 7.4; pH7.4; read-out: LogD (pH7.4)
[3] = test system: GFP-expressing HeLa cells; assay: cAMP detection in HeLa expression cell line, GFP control; assay type: cell-based, human; details: Homo sapiens, HeLa, NA = no activity; for Emax: relative to 100uM forskolin (100%) and DMSO (0%), read-out: GFP Max Activity %
Method: as §2, §3

[4] = 1st hGPR column pair, NA = no activity
[5] = 2nd hGPR column pair, NA = no activity
[6] = 2nd mGPR column pair, NA = no activity
[7] = first pair of columns, pH 7.2, 30 min
[8] = second pair of columns, pH 7.2, 30 min

T3 sequence (P46093 whole entry): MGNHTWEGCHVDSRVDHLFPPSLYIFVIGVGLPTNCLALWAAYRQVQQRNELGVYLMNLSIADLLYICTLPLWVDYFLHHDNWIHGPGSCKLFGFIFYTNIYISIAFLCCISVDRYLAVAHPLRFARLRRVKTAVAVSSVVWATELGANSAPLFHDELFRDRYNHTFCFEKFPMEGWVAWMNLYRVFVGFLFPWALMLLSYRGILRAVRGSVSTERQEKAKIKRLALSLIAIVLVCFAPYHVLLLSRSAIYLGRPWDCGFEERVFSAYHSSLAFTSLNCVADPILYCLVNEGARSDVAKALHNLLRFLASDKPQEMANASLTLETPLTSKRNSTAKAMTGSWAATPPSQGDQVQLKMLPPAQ
T4 sequence (Q8IYL9 whole entry): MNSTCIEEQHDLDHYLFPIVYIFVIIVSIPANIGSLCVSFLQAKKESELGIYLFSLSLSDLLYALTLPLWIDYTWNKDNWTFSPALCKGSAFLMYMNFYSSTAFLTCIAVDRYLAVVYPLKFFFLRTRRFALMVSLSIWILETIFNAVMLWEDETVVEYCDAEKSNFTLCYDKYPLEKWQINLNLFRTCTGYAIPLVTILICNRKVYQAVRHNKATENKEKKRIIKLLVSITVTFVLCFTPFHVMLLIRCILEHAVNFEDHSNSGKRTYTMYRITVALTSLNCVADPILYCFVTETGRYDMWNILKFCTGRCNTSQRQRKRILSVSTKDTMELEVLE
T1 sequence (Q8IYL9 whole entry): as above
T2 sequence (Q61038 whole entry): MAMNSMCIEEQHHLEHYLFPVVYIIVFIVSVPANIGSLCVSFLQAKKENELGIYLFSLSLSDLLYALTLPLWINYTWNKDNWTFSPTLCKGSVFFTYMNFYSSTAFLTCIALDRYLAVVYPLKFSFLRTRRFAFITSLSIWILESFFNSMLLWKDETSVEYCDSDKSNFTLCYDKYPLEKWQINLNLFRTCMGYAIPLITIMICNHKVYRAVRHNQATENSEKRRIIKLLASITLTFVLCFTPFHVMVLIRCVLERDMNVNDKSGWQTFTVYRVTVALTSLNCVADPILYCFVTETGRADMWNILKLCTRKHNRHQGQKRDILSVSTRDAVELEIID
T5 sequence (Q61038 whole entry): as above
T6 sequence (P46093 whole entry): as the sequence (P46093 whole entry) above

| SMILES | Emax (hGPR65; [4]) [%] | Emax (hGPR65; [5]) [%] | EC50 (hGPR65; NA = no activity) [µM] | EC50 (hGPR65; pH 7.2, 30 min) [µM] | pEC50 (hGPR65; hGPR EC50, NA = no activity) | pEC50 (hGPR65; hGPR EC50, pH 7.2, 30 min) | cAMP activity, hGPR65 (hGPR65; pH 7.2) | Emax (mGPR65; [6]) [%] | Emax (mGPR65; NA = no activity) [%] | EC50 (mGPR65; [6]) [µM] | EC50 (mGPR65; [7]) [µM] | EC50 (mGPR65; [8]) [µM] | EC50 (mGPR65; NA = no activity) [µM] | cAMP activity, mGPR65 (mGPR65) | activity for hGPR65 among prioritized molecules (hGPR65; pH 7.2) | activity for mGPR65 among prioritized molecules (mGPR65) | solubility [2] [µM] | logD (Lipophilicity (logD)) | further results |
| --- | --- | --- | --- | --- | --- | --- | --- | --- | --- | --- | --- | --- | --- | --- | --- | --- | --- | --- | --- |
| Cc1ccc(NC(=O)c2cnn3c(O)cc(-c4ccc(-c5ccncc5)cc4)nc23)cc1 [BRD0844] | – | – | – | – | – | – | – | – | – | – | – | – | – | – | – | – | – | – | Emax (hGPR65; first pair): 30.3%; pEC50 (hGPR65; SAR cAMP assay, first EC50/Max pair of hGPR columns, read-out: hGPR EC50): 5.10; Comments (solubility) [1]: Poor solubility. |
| COCc1ccc(-c2cc(O)n3ncc(C(=O)Nc4ccc(C(C)C)cc4)c3n2)cc1 [BRD2166, COCc1ccc(cc1)-c1cc(O)n2ncc(C(=O)Nc3ccc(cc3)C(C)C)c2n1] | 75 | 73.7 | 2.08 | 2.94 | 5.67 | 5.55 | at least 40% | 31.2 | 39.3 | 0.347 | 0.618 | 0.372 | 0.362 | at least 40% | – | – | – | – | cAMP production relative to BRD2813, hGPR65 (hGPR65; pH 7.2): little effect on cAMP production; cAMP relative to DMSO in the hGPR4 cells (human GPR4 (hGPR4); highest concentration tested): decrease in cAMP |
| Cc1ccc(NC(=O)c2cnn3c(O)cc(-c4ccc(COC(C)C)c(Cl)c4)nc23)cc1 [BRD5059, O=C(NC1=CC=C(C)C=C1)C2=C3N(N=C2)C(O)=CC(C4=CC=C(COC(C)C)C(Cl)=C4)=N3] | 76 | 75.4 | 0.577 | 0.478 | 6.54 | 6.21 | at least 40% | 42.2 | 51 | 0.379 | 0.591 | 0.546 | 0.505 | at least 40% | highest activity | highest activity | < 1.56 | > 5.25 | EC50 (human GPR4 (hGPR4); pH 7.2, 30 min): 1.68 µM; mGs recruitment / engagement of hGPR65 (hGPR65-SmBiT; 10 μM): showed engagement; activity after HCl versus water, hGPR65 (hGPR65-SmBiT; 10 μM, HCl or H2O at cycle 10): showed activity when preceded by the addition of HCl but not water; mGs recruitment / engagement of mGPR65 (mGPR65-SmBiT): showed engagement; activity after HCl versus water, mGPR65 (mGPR65-SmBiT; HCl or H2O at cycle 10): showed activity when preceded by the addition of HCl but not water; response in cells expressing hGPR4-SmBiT (hGPR4-SmBiT): failing to elicit responses |
| Cc1ccc(NC(=O)c2cnn3c(O)cc(-c4ccc(F)c(Cl)c4)nc23)cc1 [BRD5067, O=C(NC1=CC=C(C)C=C1)C2=C3N(N=C2)C(O)=CC(C4=CC=C(F)C(Cl)=C4)=N3] | 74.6 | 69.2 | 0.232 | 0.534 | 6.23 | 6.26 | at least 40% | 37.6 | 41.4 | 0.537 | 0.449 | 0.23 | 0.328 | at least 40% | – | – | < 1.56 | > 4.89 | EC50 (human GPR4 (hGPR4); pH 7.2, 30 min): 0.494 µM; pEC50 (human GPR4 (hGPR4); GPR4 EC50, second pair of columns, pH 7.2, 30 min): 6.16; cAMP induction in the hGPR4 cell line (human GPR4 (hGPR4); pH 7.2): additionally induced cAMP; Emax ([3]; 2nd GFP column pair): 1.17% |
| Cc1ccc(NC(=O)c2cnn3c(O)cc(-c4ccc(COC(C)C)cc4)nc23)cc1F [BRD5078, O=C(NC1=CC=C(C)C(F)=C1)C2=C3N(N=C2)C(O)=CC(C4=CC=C(COC(C)C)C=C4)=N3] | 80.5 | 73.3 | 0.229 | 0.347 | 6.46 | 6.58 | at least 40% | 51.5 | 53.6 | 0.944 | 0.477 | 0.29 | 0.332 | at least 40% | highest activity | highest activity | < 1.56 | > 4.96 | activity for hGPR65 (hGPR65): strong activity for hGPR65 |
| Cc1ccc(NC(=O)c2cnn3c(O)cc(-c4ccc(COC(C)C)cc4)nc23)cc1Cl [BRD5079, O=C(NC1=CC=C(C)C(Cl)=C1)C2=C3N(N=C2)C(O)=CC(C4=CC=C(COC(C)C)C=C4)=N3] | 81.1 | 82.5 | 0.428 | 0.348 | 6.25 | 6.38 | at least 40% | 48.8 | 57.5 | 0.276 | 0.345 | 0.591 | 0.604 | at least 40% | highest activity | highest activity | < 1.56 | > 4.23 | activity for hGPR65 (hGPR65): strong activity for hGPR65; pEC50 ([3]; 1st GFP column pair): 5.37; Emax ([3]; 1st GFP column pair): 1.78%; pEC50 ([3]; 2nd GFP column pair): 5.92; Emax ([3]; 2nd GFP column pair): 2.88% |
| CC(C)NCC(O)c1ccc(O)c(O)c1 (stereo not shown) [isoproterenol, reference compound] | – | – | – | – | – | – | – | – | – | – | – | – | – | – | – | – | – | – | luminescence in hGPR65-SmBiT/LgBiT-mGs cells (hGPR65-SmBiT; isoproterenol treatment): did not elicit a change in luminescence |
